Read-outs that look alike come from different tables or passages of the source.
Columns and labels:
[1] = test system: Green Peach Aphid (Myzus Persicae); test: Insecticidal test for green peach aphid in foliar spray assay (col. MYZUPE); assay type: in vivo; conditions: for pest or weed control at 200 ppm: Myzus persicae, 72 h, read-out: MYZUPE 200 ppm (Corrected % Control, rating)
Procedure: (§1) The compounds were tested against cotton aphid, green peach aphid, and sweet potato whitefly using procedures described in the following examples and reported in Table 2.
(§2) In each case of Table 2, the rating scale is as follows at 200 ppm.
Insecticidal Test for Green Peach Aphid (Myzus Persicae) in Foliar Spray Assay
Cabbage seedlings grown in 3-inch pots, with 2-3 small (3-5 cm) true leaves, were used as test substrate. The seedlings were infested with 20-50 green peach aphids (wingless adult and nymph) one day prior to chemical application. Four pots with individual seedlings were used for each treatment. Compounds (2 mg) were dissolved in 2 mL of acetone/methanol (1:1) solvent, forming stock solutions of 1000 ppm. The stock solutions were diluted 5× with 0.025% Tween 20 in H2O to obtain a test solution at 200 ppm. A hand-held Devilbiss sprayer was used for spraying a solution to both sides of cabbage leaves until runoff. Reference plants (solvent check) were sprayed with the diluent only. Treated plants were held in a holding room for three days at approximately 25° C. and 40% relative humidity (RH) prior to grading. Evaluation was conducted by counting the number of live aphids per plant under a microscope. Corrected % Control=100*(X−Y)/X • where X=No. of live aphids on solvent check plants • Y=No. of live aphids on treated plants

[2] = test system: Sweetpotato Whitefly-Crawler (Bemisia Tabaci); test: Insecticidal test for sweetpotato whitefly-crawler in foliar spray assay (col. BEMITA); assay type: in vivo; conditions: for pest or weed control at 200 ppm: Bemisia tabaci, read-out: BEMITA 200 ppm (Corrected % Control, rating)
Procedure: as §1, §2
Insecticidal Test for Sweetpotato Whitefly-Crawler (Bemisia Tabaci) in Foliar Spray Assay
Cotton plants grown in 3-inch pots, with 1 small (3-5 cm) true leaf, were used as test substrate. The plants were placed in a room with whitefly adults. Adults were allowed to deposit eggs for 2-3 days. After a 2-3 day egg-laying period, plants were taken from the adult whitefly room. Adults were blown off leaves using a hand-held Devilbiss sprayer (23 psi). Plants with egg infestation (100-300 eggs per plant) were placed in a holding room for 5-6 days at 82° F. and 50% RH for egg hatch and crawler stage to develop. Four cotton plants were used for each treatment. Compounds (2 mg) were dissolved in 1 mL of acetone solvent, forming stock solutions of 2000 ppm. The stock solutions were diluted 10× with 0.025% Tween 20 in H2O to obtain a test solution at 200 ppm. A hand-held Devilbiss sprayer was used for spraying a solution to both sides of cotton leaf until runoff. Reference plants (solvent check) were sprayed with the diluent only. Treated plants were held in a holding room for 8-9 days at approximately 82° F. and 50% RH prior to grading. Evaluation was conducted by counting the number of live nymphs per plant under a microscope. Insecticidal activity was measured by using Abbott's correction formula and presented in Table 2 (see col. “BEMITA”): Corrected % Control=100*(X−Y)/X • where X=No. of live nymphs on solvent check plants • Y=No. of live nymphs on treated plants Pesticidally Acceptable Acid Addition Salts, Salt Derivatives, Solvates, Ester Derivatives, Polymorphs, Isotopes and Radionuclides

SMILES | pest or weed control at 200 ppm ([1]; green peach aphid) [%] | pest or weed control at 200 ppm ([2]; sweetpotato whitefly-crawler) [%] | pest or weed control at 200 ppm ([1]; Abbott's correction formula) [%] | pest or weed control at 200 ppm ([2]; Abbott's correction formula) [%] | also measured
CCCN(C(=O)C(C)CSC)c1sc(-c2cccnc2)nc1C (stereo not drawn) [Compound 286] | 80 to 100 | 80 to 100 |  |  | 
CCN(C(=O)Cc1ccc(Cl)cc1)c1sc(-c2cccnc2)nc1Cl [Compound 575] |  |  | 80 to 100 | < 80 | 
CCN(C(=O)OC(C)(C)C)c1sc(-c2cncc(F)c2)nc1Cl [Compound 267] | 80 to 100 | 80 to 100 |  |  | 
Cc1cc(C(=O)N(C)c2sc(-c3cccnc3)nc2Cl)ccn1 [Compound 407] | 80 to 100 | < 80 |  |  | 
CSCC(C)C(=O)N(CC1CC1)c1sc(-c2cccnc2)nc1C (stereo not drawn) [Compound 468] |  |  | 80 to 100 | < 80 | 
CSCC(C)C(=O)N(C(C)=O)c1sc(-c2cccnc2)nc1C (stereo not drawn) [Compound 184] | 80 to 100 | 80 to 100 |  |  | 
CSCC(C)C(=O)N(C(=O)C(C)C)c1sc(-c2cncc(F)c2)nc1C (stereo not drawn) [Compound 200] | 80 to 100 | 80 to 100 |  |  | 
CCN(C(=O)c1ccco1)c1sc(-c2cccnc2)nc1Cl [Compound 576] |  |  | 80 to 100 | < 80 | 
CN(C(=O)CC[S+](C)[O-])c1sc(-c2cccnc2)nc1Br (stereo not drawn) [Compound 506] |  |  | 80 to 100 | < 80 | 
COC(=O)CCC(=O)N(C(=O)C(C)CSC)c1sc(-c2cccnc2)nc1C (stereo not drawn) [Compound 189] | 80 to 100 | 80 to 100 |  |  | 
Cc1nc(-c2cccnc2)sc1NC(=O)c1ccns1 [Compound 344] | < 80 | < 80 |  |  | 
CC(C)(C)OC(=O)Nc1sc(-c2cncc(F)c2)nc1F [Compound 353, [4-fluoro-2-(5-fluoro-pyridin-3-yl)-thiazol-5-yl]-carbamic acid tert-butyl ester] | < 80 | 80 to 100 |  |  | 
Cc1nc(-c2cccnc2)sc1N(C)C(=O)c1ccc(=O)n(C)n1 [Compound 404] |  |  |  |  | MYZUPE 200 ppm (Corrected % Control, rating) ([1]; green peach aphid): A (80-100); BEMITA 200 ppm (Corrected % Control, rating) ([2]; sweetpotato whitefly-crawler): B (Less than 80)
C=CC(=O)N(CC)c1sc(-c2cccnc2)nc1Cl [Compound 535] |  |  | < 80 | 80 to 100 | 
CSCC(Cc1ccccc1)C(=O)N(C)c1sc(-c2cccnc2)nc1Cl (stereo not drawn) [Compound 331] | < 80 | 80 to 100 |  |  | 
CCN(C(=O)OC(C)(C)C)c1sc(-c2cncc(F)c2)nc1F [Compound 423] | < 80 | 80 to 100 |  |  | 
COCC(=O)N1CCCC(C(=O)N(C)c2sc(-c3cncc(F)c3)nc2C)C1 (stereo not drawn) [Compound 583] |  |  | 80 to 100 | 80 to 100 | 
CCC(C)C(=O)N(CC)c1sc(-c2cccnc2)nc1Cl (stereo not drawn) [Compound 531] |  |  | 80 to 100 | 80 to 100 | 
Cc1nc(-c2cccnc2)sc1NC(=O)C(F)(F)C(F)(F)C(F)(F)C(F)(F)F [Compound 428] |  |  | < 80 | < 80 | 
CSCc1ccc(C(=O)Nc2sc(-c3cccnc3)nc2C)o1 [Compound 408] | 80 to 100 | 80 to 100 |  |  | 
CSCC(C)C(=O)Nc1sc(-c2cccnc2)nc1Cl (stereo not drawn) [Compound 588] |  |  | 80 to 100 | 80 to 100 | 
CCN(C(=O)Cc1ccc(Cl)nc1)c1sc(-c2cccnc2)nc1Cl [Compound 561] |  |  | 80 to 100 | < 80 | 
Cc1nc(-c2cncc(F)c2)sc1N(C)C(=O)C(C)C[S+](C)[O-] (stereo not drawn) [Compound 86] | 80 to 100 | 80 to 100 |  |  | 
CSCC(C)C(=O)Nc1sc(-c2cncc(F)c2)nc1Cl (stereo not drawn) [Compound 364] | 80 to 100 | 80 to 100 |  |  | 

Reference: patent publication US8853246B2 (Dow AgroSciences LLC, priority 2009, dated 2014)
